Test results: ChEMBL document CHEMBL1148373, “2-amino-O4-benzylpteridine derivatives: potent inactivators of O6-alkylguanine-DNA alkyltransferase” (2004)
Active and inactive are the calls of the source. The rule behind the calls is not given here.

Columns and labels:
HT-29 [1] = assay: Effective dose required to kill 90% of HT-29 cells with BCNU (40 uM); type: functional, Homo sapiens
HT-29 [2] = assay: Effective dose required to kill 90% HT-29 cells with BCNU (40 uM); type: functional, Homo sapiens
HT-29 [3] = assay: Effective dose required to kill 90% of HT-29 cells with BCNU (40 uM); RPMI medium; type: functional, Homo sapiens
HT-29 [4] = assay: Effective dose required to kill 90% of HT-29 cells with BCNU (40 uM); folate-free RPMI medium; type: functional, Homo sapiens
HT-29 [5] = assay: Effective dose required to kill 90% of HT-29 cells with BCNU (40 Dulbecco''s medium; type: functional, Homo sapiens
[6] = biological target: T1, Methylated-DNA--protein-cysteine methyltransferase (Homo sapiens) (UniProt P16455)
T1 sequence (whole entry): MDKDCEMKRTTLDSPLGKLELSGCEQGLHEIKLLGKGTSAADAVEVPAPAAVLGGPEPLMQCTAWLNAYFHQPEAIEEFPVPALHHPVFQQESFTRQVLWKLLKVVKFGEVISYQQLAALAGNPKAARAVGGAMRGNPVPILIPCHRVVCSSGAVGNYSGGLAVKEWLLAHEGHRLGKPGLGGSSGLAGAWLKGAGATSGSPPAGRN
Description: In vitro inactivation of human O6-alkylguanine-DNA alkyltransferase in the absence of calf thymus DNA (ctDNA)

[7] = biological target: T1, Methylated-DNA--protein-cysteine methyltransferase (Homo sapiens); remark: listed apart in the source
Description: In vitro inactivation of human O6-alkylguanine-DNA alkyltransferase in the presence of calf thymus DNA (ctDNA)

HT-29 [8] = assay: Effective dose required to kill 90% of HT-29 cells with BCNU (40 uM; type: functional, cell-based; conditions: Homo sapiens

`Nc1nc(OCc2ccccc2)c2nc(C=O)cnc2n1` was tested. Which ED90 (HT-29 [1]) did it give?
The ED90 was 700 nM.

With `Cc1nc2nc(N)nc(OCc3ccccc3)c2nc1C` as the molecule, how does the ED90 (HT-29 [1]) read?
The ED90 was 600 nM.

Which ED90 (HT-29 [2]) does the source give for `Nc1nc(OCc2ccccc2)c2nc(CO)cnc2n1` here?
Its ED90 is 700 nM.

With `Nc1nc(OCc2ccccc2)c2nccnc2n1` as the molecule, how does the ED90 (HT-29 [1]) read?
The ED90 was 200 nM.

With `Nc1nc(OCc2ccccc2)c2nc(CNc3ccc(C(=O)N[C@@H](CCC(=O)O)C(=O)O)cc3)cnc2n1` as the molecule, how does the ED90 (HT-29 [3]) read?
Its ED90 is 24000 nM.

What about the ED90 (HT-29 [4]) of the same molecule?
The ED90 was 15000 nM.

`Nc1nc(OCc2ccccc2)c2nc[nH]c2n1` [6-O-BENZYLGUANINE] was tested. Which ED90 (HT-29 [5]) did it give?
Its ED90 is 400 nM.

And the ED90 (HT-29 [3])?
Its ED90 is 700 nM.

What about the ED50 [6] of the same molecule?
Its ED50 is 320 nM.

What about the ED50 [7] of the same molecule?
Its ED50 is 120 nM.

For `Nc1nc(OCc2ccccc2)c2nc(C(=O)O)cnc2n1`, which ED90 (HT-29 [8]) is on record?
The ED90 was “inactive”.
